Results published in US10494355B2, “Oxadiazole amine derivative compounds as histone deacetylase 6 inhibitor, and the pharmaceutical composition comprising the same” (Chong Kun Dang Pharmaceutical Corp., priority 2015, dated 2019).

What was measured:
human recombinant HDAC1 = target: T1, human recombinant HDAC1 (Homo sapiens, UniProt Q13547); experiment: HDAC1 enzyme activity inhibition assay (HDAC Fluorimetric Drug Discovery Kit); type: biochemical; details: human recombinant HDAC1, 10 μM substrate, 30° C. 60 minutes
T1 construct: purchased Enzo Life Science BML-SE456
Experimental: (§1) In order to examine the HDAC6 selectivity of the compounds of formula I of the present invention by HDAC1 and HDAC6 enzymatic activity inhibition assays, an experiment was performed using a conventional substance as a control.
(§2) HDAC enzyme activity was measured using a HDAC Fluorimetric Drug Discovery Kit (BML-AK511, 516, Enzo Life Science). For the HDAC1 enzyme activity test, human recombinant HDAC1 (BML-SE456) was used as an enzyme source, and Fluor de Lys®-“SIRT1 (BNL-KI177) was used as a substrate. A 5-fold dilution of the compound was seeded into a 96-well plate, and then 0.3 μg of the enzyme and 10 μM of the substrate were added to each well of the plate and allowed to react at 30° C. for 60 minutes. Then, Fluor de Lys®-Developer II (BML-KI176) was added thereto and allowed to react for 30 minutes, after which the fluorescence value (Ex 360, Em 460) was measured using a multi-plate reader (Flexstation 3, Molecular Device). The HDAC6 enzyme was tested using human recombinant HDAC6 (382180) (Calbiochem) according to the same protocol as the HDAC1 enzyme activity test method. Based on the resulting values, each IC50 value was calculated using GraphPad Prism4.0 program.

human recombinant HDAC6 = target: T2, human recombinant HDAC6 (Homo sapiens, UniProt Q9UBN7); experiment: HDAC6 enzyme activity inhibition assay (HDAC Fluorimetric Drug Discovery Kit); type: biochemical; details: 30° C. 60 minutes
T2 construct: purchased Calbiochem 382180
T2 sequence (Q9UBN7 1-1215): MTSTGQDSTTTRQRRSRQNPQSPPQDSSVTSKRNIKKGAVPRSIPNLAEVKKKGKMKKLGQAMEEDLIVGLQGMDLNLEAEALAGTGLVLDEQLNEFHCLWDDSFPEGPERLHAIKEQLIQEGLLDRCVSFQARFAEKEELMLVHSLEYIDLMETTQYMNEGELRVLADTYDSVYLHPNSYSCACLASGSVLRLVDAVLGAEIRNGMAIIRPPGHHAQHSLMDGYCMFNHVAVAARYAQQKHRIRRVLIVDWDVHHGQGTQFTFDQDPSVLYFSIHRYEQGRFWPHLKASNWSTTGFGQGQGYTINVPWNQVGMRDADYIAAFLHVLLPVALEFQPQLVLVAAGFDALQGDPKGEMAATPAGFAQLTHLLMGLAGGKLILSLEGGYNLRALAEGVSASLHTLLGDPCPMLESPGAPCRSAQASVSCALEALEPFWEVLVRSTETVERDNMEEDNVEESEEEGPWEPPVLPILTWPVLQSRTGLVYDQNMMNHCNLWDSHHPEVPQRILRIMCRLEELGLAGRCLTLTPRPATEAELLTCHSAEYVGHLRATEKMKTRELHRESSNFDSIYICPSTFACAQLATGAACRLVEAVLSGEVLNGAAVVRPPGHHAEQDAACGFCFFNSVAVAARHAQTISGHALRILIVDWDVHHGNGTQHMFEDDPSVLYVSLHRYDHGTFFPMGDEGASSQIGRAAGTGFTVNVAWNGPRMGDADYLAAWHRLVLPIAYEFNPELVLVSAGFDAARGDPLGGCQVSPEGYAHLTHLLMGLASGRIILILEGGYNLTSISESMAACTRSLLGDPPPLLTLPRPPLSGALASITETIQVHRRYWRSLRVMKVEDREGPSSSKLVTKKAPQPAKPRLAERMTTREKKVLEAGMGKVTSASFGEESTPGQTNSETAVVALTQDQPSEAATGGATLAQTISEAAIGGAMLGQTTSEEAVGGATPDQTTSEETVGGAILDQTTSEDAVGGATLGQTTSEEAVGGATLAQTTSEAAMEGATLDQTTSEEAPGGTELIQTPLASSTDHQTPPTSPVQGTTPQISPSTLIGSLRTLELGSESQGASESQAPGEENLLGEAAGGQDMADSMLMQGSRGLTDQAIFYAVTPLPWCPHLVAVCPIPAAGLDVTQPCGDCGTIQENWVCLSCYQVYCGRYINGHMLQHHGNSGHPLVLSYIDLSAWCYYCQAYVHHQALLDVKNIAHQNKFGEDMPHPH
Experimental: as §1, §2

T1 sequence (Q13547 whole entry): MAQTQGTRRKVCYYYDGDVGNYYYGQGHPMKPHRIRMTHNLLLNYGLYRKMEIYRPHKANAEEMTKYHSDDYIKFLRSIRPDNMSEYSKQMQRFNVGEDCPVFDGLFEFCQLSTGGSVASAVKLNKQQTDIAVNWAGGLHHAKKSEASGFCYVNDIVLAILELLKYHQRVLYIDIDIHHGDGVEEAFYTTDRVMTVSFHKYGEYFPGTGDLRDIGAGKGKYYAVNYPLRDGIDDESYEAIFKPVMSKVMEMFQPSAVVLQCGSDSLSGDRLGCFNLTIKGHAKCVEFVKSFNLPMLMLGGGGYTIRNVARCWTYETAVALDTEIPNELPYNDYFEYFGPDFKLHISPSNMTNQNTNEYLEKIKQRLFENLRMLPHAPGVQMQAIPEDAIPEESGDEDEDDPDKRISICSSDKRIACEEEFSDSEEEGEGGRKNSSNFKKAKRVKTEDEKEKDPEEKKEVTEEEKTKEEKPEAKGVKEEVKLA

Compound	IC50 (human recombinant HDAC1) [nM]	IC50 (human recombinant HDAC6) [nM]
FC(F)(F)c1nnc(-c2cnc(NC3(c4ccccc4)CC3)nc2)o1 [Compound 1526, N-(1-phenylcyclopropyl)-5-(5-(trifluoromethyl)-1,3,4-oxadiazol-2-yl)pyrimidin-2-amine]	> 10000	179
FC(F)(F)c1nnc(-c2cnc(NC3(c4ccccc4)CCCC3)nc2)o1 [Compound 1580, N-(1-phenylcyclopentyl)-5-(5-(trifluoromethyl)-1,3,4-oxadiazol-2-yl)pyrimidin-2-amine]	> 10000	305
FC(F)c1nnc(-c2cnc(NC3(c4ccccc4)CCCCC3)nc2)o1 [Compound 1581, 5-(5-(difluoromethyl)-1,3,4-oxadiazol-2-yl)-N-(1-phenylcyclohexyl)pyrimidin-2-amine]	> 10000	135
FC(F)(F)c1nnc(-c2cnc(NC3(c4ccccc4)CCCCC3)nc2)o1 [Compound 1582, N-(1-phenylcyclohexyl)-5-(5-(trifluoromethyl)-1,3,4-oxadiazol-2-yl)pyrimidin-2-amine]	> 10000	1250
COc1ccc(C2(Nc3ncc(-c4nnc(C(F)F)o4)cn3)CCC2)cc1 [Compound 1603, 5-(5-(difluoromethyl)-1,3,4-oxadiazol-2-yl)-N-(1-(4-methoxyphenyl)cyclobutyl)pyrimidin-2-amine]	> 10000	50
COc1ccc(C2(Nc3ncc(-c4nnc(C(F)(F)F)o4)cn3)CCC2)cc1 [Compound 1604, N-(1-(4-methoxyphenyl)cyclobutyl)-5-(5-(trifluoromethyl)-1,3,4-oxadiazol-2-yl)pyrimidin-2-amine]	> 10000	204
COc1cccc(C2(Nc3ncc(-c4nnc(C(F)F)o4)cn3)CCC2)c1 [Compound 1605, 5-(5-(difluoromethyl)-1,3,4-oxadiazol-2-yl)-N-(1-(3-methoxyphenyl)cyclobutyl)pyrimidin-2-amine]	> 10000	44
COc1cccc(C2(Nc3ncc(-c4nnc(C(F)(F)F)o4)cn3)CCC2)c1 [Compound 1606, N-(1-(3-methoxyphenyl)cyclobutyl)-5-(5-(trifluoromethyl)-1,3,4-oxadiazol-2-yl)pyrimidin-2-amine]	> 10000	168
Fc1cccc(C2(Nc3ncc(-c4nnc(C(F)(F)F)o4)cn3)CCC2)c1 [Compound 1608, N-(1-(3-fluorophenyl)cyclobutyl)-5-(5-(trifluoromethyl)-1,3,4-oxadiazol-2-yl)pyrimidin-2-amine]	> 10000	154
Fc1ccccc1C1(Nc2ncc(-c3nnc(C(F)(F)F)o3)cn2)CCC1 [Compound 1610, N-(1-(2-fluorophenyl)cyclobutyl)-5-(5-(trifluoromethyl)-1,3,4-oxadiazol-2-yl)pyrimidin-2-amine]	> 10000	151
Fc1ccc(C2(Nc3ncc(-c4nnc(C(F)(F)F)o4)cn3)CCC2)cc1 [Compound 1612, N-(1-(4-fluorophenyl)cyclobutyl)-5-(5-(trifluoromethyl)-1,3,4-oxadiazol-2-yl)pyrimidin-2-amine]	> 10000	455
FC(F)(F)c1nnc(-c2cnc(NC3(c4ccc(Cl)cc4)CCC3)nc2)o1 [Compound 1618, N-(1-(4-chlorophenyl)cyclobutyl)-5-(5-(trifluoromethyl)-1,3,4-oxadiazol-2-yl)pyrimidin-2-amine]	> 10000	267
FC(F)(F)c1nnc(-c2cnc(NC3(c4ccccn4)CCC3)nc2)o1 [Compound 1641, N-(1-(pyridin-2-yl)cyclobutyl)-5-(5-(trifluoromethyl)-1,3,4-oxadiazol-2-yl)pyrimidin-2-amine]	> 10000	58
FC(F)c1nnc(-c2cnc(NC3(c4cccc(C(F)(F)F)c4)CCC3)nc2)o1 [Compound 1642, 5-(5-(difluoromethyl)-1,3,4-oxadiazol-2-yl)-N-(1-(3-(trifluoromethyl)phenyl)cyclobutyl)pyrimidin-2-amine]	> 10000	57
Fc1ccc(C2(Nc3ncc(-c4nnc(C(F)F)o4)cn3)CC2)cc1F [Compound 1779, 5-(5-(difluoromethyl)-1,3,4-oxadiazol-2-yl)-N-(1-(3,4-difluorophenyl)cyclopropyl)pyrimidin-2-amine]		134

Continued, values first:

IC50 (human recombinant HDAC1) [nM]	IC50 (human recombinant HDAC6) [nM]	Compound
> 10000	48	FC(F)c1nnc(-c2cnc(NC3(c4ccccc4)CC3)nc2)o1 [Compound 1524, 5-(5-(difluoromethyl)-1,3,4-oxadiazol-2-yl)-N-(1-phenylcyclopropyl)pyrimidin-2-amine]
> 10000	30	FC(F)c1nnc(-c2cnc(NC3(c4ccccc4)CCC3)nc2)o1 [Compound 1559, 5-(5-(difluoromethyl)-1,3,4-oxadiazol-2-yl)-N-(1-phenylcyclobutyl)pyrimidin-2-amine]
> 10000	46	FC(F)c1nnc(-c2cnc(NC3(c4ccccc4)CCCC3)nc2)o1 [Compound 1579, 5-(5-(difluoromethyl)-1,3,4-oxadiazol-2-yl)-N-(1-phenylcyclopentyl)pyrimidin-2-amine]
> 10000	32	Fc1cccc(C2(Nc3ncc(-c4nnc(C(F)F)o4)cn3)CCC2)c1 [Compound 1607, 5-(5-(difluoromethyl)-1,3,4-oxadiazol-2-yl)-N-(1-(3-fluorophenyl)cyclobutyl)pyrimidin-2-amine]
> 10000	23	Fc1ccccc1C1(Nc2ncc(-c3nnc(C(F)F)o3)cn2)CCC1 [Compound 1609, 5-(5-(difluoromethyl)-1,3,4-oxadiazol-2-yl)-N-(1-(2-fluorophenyl)cyclobutyl)pyrimidin-2-amine]
> 10000	38	Fc1ccc(C2(Nc3ncc(-c4nnc(C(F)F)o4)cn3)CCC2)cc1 [Compound 1611, 5-(5-(difluoromethyl)-1,3,4-oxadiazol-2-yl)-N-(1-(4-fluorophenyl)cyclobutyl)pyrimidin-2-amine]
> 10000	29	FC(F)c1nnc(-c2cnc(NC3(c4ccccc4Cl)CCC3)nc2)o1 [Compound 1614, N-(1-(2-chlorophenyl)cyclobutyl)-5-(5-(difluoromethyl)-1,3,4-oxadiazol-2-yl)pyrimidin-2-amine]
> 10000	22	FC(F)c1nnc(-c2cnc(NC3(c4cccc(Cl)c4)CCC3)nc2)o1 [Compound 1615, N-(1-(3-chlorophenyl)cyclobutyl)-5-(5-(difluoromethyl)-1,3,4-oxadiazol-2-yl)pyrimidin-2-amine]
> 10000	44	FC(F)c1nnc(-c2cnc(NC3(c4ccc(Cl)cc4)CCC3)nc2)o1 [Compound 1616, N-(1-(4-chlorophenyl)cyclobutyl)-5-(5-(difluoromethyl)-1,3,4-oxadiazol-2-yl)pyrimidin-2-amine]
> 10000	211	FC(F)(F)c1nnc(-c2cnc(NC3(c4ccccc4Cl)CCC3)nc2)o1 [Compound 1617, N-(1-(2-chlorophenyl)cyclobutyl)-5-(5-(trifluoromethyl)-1,3,4-oxadiazol-2-yl)pyrimidin-2-amine]
> 10000	28	FC(F)c1nnc(-c2cnc(NC3(c4ccccn4)CCC3)nc2)o1 [Compound 1640, 5-(5-(difluoromethyl)-1,3,4-oxadiazol-2-yl)-N-(1-(pyridin-2-yl)cyclobutyl)pyrimidin-2-amine]
